Test results taken from patent EP0055702B1, “Antithrombotic treatment” (priority 1980, dated 1982).
Several values for one entry are separate records, joined by “and”; a condition that tells them apart may be missing. Equal entries are not always repeated. Where two headings read alike, the source gives them in different places.

How the values were obtained:
[1] = target: T1, Prothrombin (Homo sapiens, UniProt P00734); assay: Prothrombin (Factor II) assay, Example 4; assay type: biochemical; settings: for Prothrombin: Control 87
T1 construct: from tissue; host or cells: human plasma
Description: (§1) The evaluation procedure used is that described in "Human Blood Coagulation, Haemostasis and Thrombosis", edited by Rosemary Biggs, published by Blackwell Scientific Publications, Oxford, England (2nd Edition), pages 670-705, 1976. […]

[2] = target: T2, F VIII (Homo sapiens, UniProt P00451); assay: Factor VIII assay, Example 4; assay type: biochemical; settings: for F VIII: Control 57
T2 construct: from tissue; host or cells: human plasma
Description: as §1

[3] = system: thrombus formation in the jugular vein; assay: Anti-venous thrombotic effect, 125I fibrinogen technique in rabbits; assay type: in vivo
Description: Also, a thrombosis is detectable, for example, from a patient's conditions symptomatically perceivable by a skilled medical practitioner and well known to the art of medicine. Objectively, various methods are available, including venography, impedance plethysmography, doppler ultrasound and the 1251-fibrinogen test (see, for example, the articles by Kakkar, "Archives of Surgery", 104, page 152 (1972) and by Kelton, J.G. et al, Journal of Clinical Investigation, Vol. 62, pgs. 892-895, (1978)).
The anti-venous thrombotic effect of sodium bisulphite was evaluated in rabbits by using the 1^125 fibrinogen technique described above.
Each rabbit was continuously infused with aqueous sodium bisulphite solution at the rate of 460 mg/kg per hr. (2.97 grams) (animal body weight 2.3 kg).
After 5 hours, the animal was sacrificed and the radioactive fibrinogen accumulated in the damaged jugular vein was determined. The radioactivity in the contra-lateral (undamaged) jugular vein was also determined, to serve as a control. Concurrently, another rabbit was subjected to the same procedure, but was given only a standard sodium chloride solution, as a control.

[4] = system: rats; assay: Rats fed bait containing 0.5% sodium bisulphite; assay type: in vivo
Description: Five rats, each in a separate cage, were given a bait containing 0.5 percent by weight of sodium bisulphite. The bait consisted of cracked grains (wheat, corn, millet and corn meal). The amounts of bait eaten were summarized for an eleven day period.

[5] = system: platelet aggregation induced by adenosine diphosphate (ADP); settings: rabbit blood, Kikugawa, cited from earlier work
[6] = Sodium bisulphite 0.01 mg/ml, solution D
[7] = Sodium bisulphite 0.05 mg/ml, solution D
[8] = Sodium bisulphite 0.1 mg/ml, solution D
[9] = Sodium bisulphite 0.5 mg/ml, solution D
[10] = Sodium bisulphite 1.0 mg/ml, solution D
[11] = Sodium bisulphite 5.0 mg/ml, solution D
[12] = chemical grade sodium bisulphite 0.01 mg/ml
[13] = chemical grade sodium bisulphite 0.05 mg/ml
[14] = chemical grade sodium bisulphite 0.1 mg/ml
[15] = chemical grade sodium bisulphite 0.5 mg/ml
[16] = chemical grade sodium bisulphite 1.0 mg/ml
[17] = chemical grade sodium bisulphite 5.0 mg/ml

T2 sequence (P00451 20-2351): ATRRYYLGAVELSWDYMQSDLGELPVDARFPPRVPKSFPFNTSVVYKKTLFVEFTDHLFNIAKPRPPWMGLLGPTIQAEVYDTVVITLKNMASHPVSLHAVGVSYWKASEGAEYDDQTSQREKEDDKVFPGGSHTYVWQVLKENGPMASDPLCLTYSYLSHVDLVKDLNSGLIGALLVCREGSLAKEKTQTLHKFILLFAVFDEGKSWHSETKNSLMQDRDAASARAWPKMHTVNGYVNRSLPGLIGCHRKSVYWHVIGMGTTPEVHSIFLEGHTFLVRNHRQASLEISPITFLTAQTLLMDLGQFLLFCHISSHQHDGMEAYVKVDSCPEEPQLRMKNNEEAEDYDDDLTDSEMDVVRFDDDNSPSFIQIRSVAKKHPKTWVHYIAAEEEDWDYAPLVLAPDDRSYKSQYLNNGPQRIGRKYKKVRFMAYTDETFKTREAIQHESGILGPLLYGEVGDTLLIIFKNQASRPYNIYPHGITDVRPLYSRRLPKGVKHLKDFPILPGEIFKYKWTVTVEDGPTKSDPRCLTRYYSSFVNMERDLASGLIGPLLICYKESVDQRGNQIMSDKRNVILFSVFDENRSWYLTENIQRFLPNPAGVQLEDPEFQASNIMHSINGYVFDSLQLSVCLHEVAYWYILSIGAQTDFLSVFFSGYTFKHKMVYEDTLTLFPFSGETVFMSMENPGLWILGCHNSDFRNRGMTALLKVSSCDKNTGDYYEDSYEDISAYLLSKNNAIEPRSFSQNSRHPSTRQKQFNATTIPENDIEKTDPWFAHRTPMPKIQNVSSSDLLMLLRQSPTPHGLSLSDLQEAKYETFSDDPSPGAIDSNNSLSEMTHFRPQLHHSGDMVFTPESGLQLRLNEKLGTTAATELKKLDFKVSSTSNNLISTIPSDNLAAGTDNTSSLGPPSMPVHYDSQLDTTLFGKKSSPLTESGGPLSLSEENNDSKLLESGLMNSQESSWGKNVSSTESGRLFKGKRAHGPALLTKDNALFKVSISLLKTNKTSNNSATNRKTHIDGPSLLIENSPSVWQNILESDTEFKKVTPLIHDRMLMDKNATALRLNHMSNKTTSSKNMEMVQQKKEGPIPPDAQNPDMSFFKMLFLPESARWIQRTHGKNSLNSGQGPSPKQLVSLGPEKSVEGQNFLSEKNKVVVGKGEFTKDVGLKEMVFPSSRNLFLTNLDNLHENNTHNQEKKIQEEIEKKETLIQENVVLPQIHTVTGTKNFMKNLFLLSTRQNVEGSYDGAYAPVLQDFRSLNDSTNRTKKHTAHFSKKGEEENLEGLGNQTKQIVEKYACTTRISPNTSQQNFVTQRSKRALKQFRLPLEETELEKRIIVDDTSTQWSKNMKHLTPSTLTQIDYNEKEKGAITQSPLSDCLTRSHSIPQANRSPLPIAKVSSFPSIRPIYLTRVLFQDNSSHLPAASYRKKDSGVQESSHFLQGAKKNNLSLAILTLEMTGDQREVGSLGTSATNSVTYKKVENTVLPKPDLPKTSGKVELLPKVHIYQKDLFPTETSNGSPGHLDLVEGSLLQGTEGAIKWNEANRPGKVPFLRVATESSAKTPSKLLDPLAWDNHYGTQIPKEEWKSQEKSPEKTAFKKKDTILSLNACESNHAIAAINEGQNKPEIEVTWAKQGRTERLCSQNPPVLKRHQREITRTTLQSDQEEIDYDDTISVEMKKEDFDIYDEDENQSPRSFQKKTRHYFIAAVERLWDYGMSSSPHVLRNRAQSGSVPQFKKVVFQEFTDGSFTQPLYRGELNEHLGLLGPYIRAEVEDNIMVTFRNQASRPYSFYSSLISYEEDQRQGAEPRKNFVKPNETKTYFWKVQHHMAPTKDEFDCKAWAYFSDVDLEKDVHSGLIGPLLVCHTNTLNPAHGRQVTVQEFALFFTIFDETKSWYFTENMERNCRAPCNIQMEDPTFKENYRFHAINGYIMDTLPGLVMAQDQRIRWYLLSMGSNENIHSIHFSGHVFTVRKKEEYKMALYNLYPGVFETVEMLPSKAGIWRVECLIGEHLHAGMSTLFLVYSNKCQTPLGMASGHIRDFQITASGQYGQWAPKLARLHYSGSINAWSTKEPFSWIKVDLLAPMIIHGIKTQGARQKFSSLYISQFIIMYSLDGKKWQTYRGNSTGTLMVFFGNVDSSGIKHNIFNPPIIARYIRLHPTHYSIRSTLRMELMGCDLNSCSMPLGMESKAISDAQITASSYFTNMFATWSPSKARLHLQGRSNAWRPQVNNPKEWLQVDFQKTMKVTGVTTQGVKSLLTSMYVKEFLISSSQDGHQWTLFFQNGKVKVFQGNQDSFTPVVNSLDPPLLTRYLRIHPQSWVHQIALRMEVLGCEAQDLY

Sodium bisulphite
Prothrombin [1, 6]: 79%
Prothrombin [1, 7]: 80%
Prothrombin [1, 8]: 72%
Prothrombin [1, 9]: 40%
Prothrombin [1, 10]: 26%
Prothrombin [1, 11]: 5%
Prothrombin [1, 12]: 88%
Prothrombin [1, 13]: 82%
Prothrombin [1, 14]: 75%
Prothrombin [1, 15]: 34%
Prothrombin [1, 16]: 25%
Prothrombin [1, 17]: 8%
effect on Factor II ([1]; human plasma): mildly affected
F VIII [2, 6]: 62%
F VIII [2, 7]: 68%
F VIII [2, 8]: 55%
F VIII [2, 9]: 58%
F VIII [2, 10]: 29%
F VIII [2, 11]: 11%
F VIII [2, 12]: 58
F VIII [2, 13]: 55
F VIII [2, 14]: 56
F VIII [2, 15]: 55
F VIII [2, 16]: 31
F VIII [2, 17]: 13
effect on Factor VIII ([2]; human plasma): mildly affected
radioactivity (radioactive fibrinogen) in damaged jugular vein, control rabbit relative to infused rabbit ([3]; continuous infusion 460 mg/kg per hr, 5 hours, control given sodium chloride solution): 7 times
death of other rabbits during infusion ([3]; other rabbits similarly evaluated, apparently overdosing): died before the experiment was completed
death of rat ([4]; 2 days, Rat 1 and Rat 4, bait with 0.5% sodium bisulphite): Died
First day blood factor PT ([4]; Rat 5, bait with 0.5% sodium bisulphite): 27
First day blood factor PT, increase ([4]; Rats 1, 2, 3, bait with 0.5% sodium bisulphite): 26% increase and 24% increase and 28% increase
change in PTT, first day ([4]; three rats with increased PT): no apparent change
inhibition of platelet aggregation induced by ADP ([5]; 1 mM): 9%
inhibition of platelet aggregation induced by ADP ([5]; 5 mM): 66%
inhibition of platelet aggregation induced by ADP ([5]; 10 mM): 69%
